Values quoted from earlier work as cited in US8673587B2, “Methods for identifying allosteric and other novel acyl-coenzyme A:cholesterol acyltransferase inhibitors” (Trustees of Dartmouth College, priority 2010, dated 2014).

Test system: lysohpospholipid acyltransferase (LPAT)
Details: cited from earlier work

SMILES: CCCCCCCCCCC(C)(C)C(=O)Nc1c(OC)cc(OC)cc1OC [CI976]
- inhibition of LPAT: has been shown to inhibit
